Test results: patent US20220358646A1, “CELL ACTIVITY MACHINE LEARNING” (Q-STATE BIOSCIENCES, INC., priority 2021, published 2022)

What was measured:
[1] = test system: E18 rat hippocampal neurons; assay: Optopatch functional phenotypes of compounds in cultured neurons; type: cell-based; conditions: normalized to control vehicle, 14 days culture
Protocol: E18 rat hippocampal neurons were cultured for 14 days and caused to express Optopatch proteins as described in Example 1. The cells were stimulated in the presence of XE-991 (a Kv7.x blocker), ML-213 (a Kv7.x opener), a-Dendrotoxin (a Kv1.x blocker), OXO-M (a muscarinic agonist), 4AP (a promiscuous Kv blocker), Isradipine (a Cav1.x blocker), or a control vehicle. FIG. 26 provides radar plots representing generated functional phenotypes indicative of the drug-induced changes in neuronal spiking behavior along many dimensions. The action potential feature values were normalized to those for the cells simulated in the presence of the control vehicle. As shown in the radar plots, each compound provided a discernable and unique functional phenotype. […] FIG. 27 provides concentration response curves for the cells in the presence of varied concentrations of the compounds. Each symbol represents >100 cells in one well and all measurements were obtained in a single day. Thus, the present systems and methods can not only elucidate therapeutic responses of various compounds, but also show concentration-dependent responses. Moreover, as the measurements were taken in a single day, the presently disclosed systems and methods enable fast, high-throughput drug screening.

[2] = test system: iPSC-derived excitatory cortical neurons (NGN2) with loss of function knockout; assay: Optopatch functional phenotype reversal in knockout (KO) disease-model neurons versus wildtype control; type: cell-based, human; conditions: for cell behavior projected onto phenotype/side effect space: KO cells, 8 concentrations from 0.28 to 600 μM, two replicates; for reversal of disease-model functional phenotype (radar plot of action potential features): KO disease-model cells stimulated in presence of compound, normalized to control cells
Protocol: In this example, iPSC-derived excitatory cortical neurons (NGN2) were grown for 30 days in a culture. The neurons expressed Optopatch proteins as described in Example 1. Two sets of neurons were grown. The first was a wildtype control line.
The cells were stimulated using blue light as described in Example 1 and their action potentials recorded as voltage traces. Recordings were made of the control cells and disease-model cells when stimulated in the absence of any test compound. Recordings were also made of the disease-model cells when stimulated in the presence of the promiscuous potassium channel blocker 4-AP and the promiscuous sodium channel blocker lamotrigine.
FIG. 23 provides radar plots representing functional phenotypes generated by a machine learning system using action potential features extracted from the recorded action potentials when the cells were stimulated by blue light. The values for the features are normalized to the control cell recordings. […] The differences in the recorded traces, select features of which are provided on the radar plots, show the functional phenotype of the disease-model.
FIG. 24 is a diagram illustrating phenotype reversal and “side effects” described by mapping extracted action potential features on the ˜300-dimensional space of recorded parameters, only two of which are shown. Extracted features for the control cell (WT) wells (green) are clustered as are those for the KO cells (red). The vector between these populations represents the phenotype (red). Drug effects (blue) are deconstructed into components along (phenotype reversal) and orthogonal to (side effects) the phenotype vector. An ideal drug would undo the effects of the mutation and move the well from the KO cluster to the control cell cluster.
FIG. 25 is a plot showing many wells projected onto the phenotype/side effect space. WT and KO wells are well separated along the phenotype direction. Application of the two compounds (8 concentrations from 0.28 to 600 μM) from FIG. 25 have increasing effects on KO cell behavior as the concentration increases. […] The connected drug points are in order of increasing concentration, and the two lines are experimental replicates on two consecutive weeks of experiment.

[3] = test system: E18 rat hippocampal neurons; assay: Optopatch 96-well plate firing assay, alternating columns compound/vehicle; type: cell-based; conditions: ML-213 at 1 μM versus vehicle wells
Protocol: E18 rat hippocampal neurons were cultured for 14 days and caused to express Optopatch proteins as described in Example 1. The cells were placed in wells of a 96-well plate. ML-213 at 1 μM was added to alternating columns of the plate and a control vehicle added to the remaining columns. The cells in all wells were stimulated and their action potentials recorded using a microscope as described in Example 1.
FIG. 30 provides the average firing rate during the blue light stimulus ramp for each well.
FIG. 32 provides a plot of the average number of spikes recorded for individual cells in each well during the blue light stimulus ramp.

[4] = test system: hiPSC-derived motor neurons; assay: Optopatch optical stimulation and voltage recording of hiPSC-derived motor neurons before and after compound addition; type: cell-based, human
Text: Human induced pluripotent stem cells (hiPSC) were differentiated into hiPSC-derived motor neurons. The cells expressed an optogenetic proteins from the Optopatch toolkit (optical stimulation plus optical voltage reporting, e.g., CheRiff & QuasAr), which allows simultaneous optical stimulation and recording of neuronal action potentials.
The channelrhodopsin CheRiff enables action potential stimulation with blue light and the voltage-sensitive fluorescent protein QuasAr enables high-speed electrical recordings with red light. A microscope, as disclosed herein, obtained simultaneous voltage recordings from >100 individual neurons over a large (0.5×4 mm) field of view (FOV) with 1 ms temporal resolution and high signal-to-noise ratio (SNR). A digital micromirror device (DMD) in the microscope projected a fully reconfigurable optical pattern to sequentially stimulate cells while recording from many post-synaptic partners. […]
In every trace the spikes were detected and the key spike shape and timing parameters were computed. […]
Pixels in the recording that captured fluorescence from the reporters of membrane potential in each neuron co-varied in time following that cell's unique firing pattern. […] Each FOV was recorded twice, before and after addition of potassium channel opener ML-213. […]

Row | SMILES | drug-induced changes in neuronal spiking behavior (functional phenotype) [1] | cell behavior projected onto phenotype/side effect space [2] | reversal of disease-model functional phenotype (radar plot of action potential features) [2] | average firing rate during the blue light stimulus ramp [3] | neuronal excitability ([4]; 1 μM ML-213, same neurons before and after addition, blue light stimulus) | resting potential and action potential firing ([4]; hiPSC-derived motor neurons)
1 | O=C1c2ccccc2C(Cc2ccncc2)(Cc2ccncc2)c2ccccc21 [XE-991] | drove cellular response, as expected |  |  |  |  | 
2 | Nc1ccncc1 [4-AP] |  | moves cell behavior toward and beyond WT behavior | substantially reversed the phenotype |  |  | 
3 | Cc1cc(C)c(NC(=O)C2CC3CCC2C3)c(C)c1 (stereo not drawn) [ML-213] | drove cellular response, as expected |  |  | dramatically reduces firing rate | clear reduction in neuronal excitability | lowers resting potential and suppresses action potential firing
4 | Nc1nnc(-c2cccc(Cl)c2Cl)c(N)n1 [lamotrigine] |  | moves behavior away from both WT and KO | perturbed behavior but did not reverse the phenotype |  |  | 
